# Source: patent publication US11547687B2, “Neprilysin inhibitors” (THERAVANCE BIOPHARMA R&D IP, LLC, priority 2011, dated 2023)
# Target: human NEP (Homo sapiens (Human), UniProt P08473)
# Test: In vitro enzyme inhibition assay at human NEP (Assay 1)
# Assay type: biochemical
# Settings: pKi values at human NEP, reported as ranges
smiles,measurement,value
"CC(C)COC(=O)C(=O)N[C@H](Cc1ccc(-c2cc(Cl)ccc2Cl)cc1)C[C@@H](O)C(=O)O [Example 3D, (2R,4R)-5-(2′,5′-Dichlorobiphenyl-4-yl)-2-hydroxy-4-(isobutoxyoxalylamino)-pentanoic Acid]",pKi,≥9
